ChEMBL document CHEMBL1201862, “PubChem BioAssay data set” (2004)
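Values below derive from 48-hour exposures of cells grown in 96-well plates, with endpoints linearly interpolated between the two concentrations bracketing the appropriate inhibition level. GI50 is the concentration that inhibits growth by half.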 Calls of active or inactive are those of the source. Cut-off read from the data, not from the text of the source: active = GI50 up to about 1.1 µM and inactive = higher.

Assays:
Experiment in all cases: growth of human tumour cells (NCI), 48 h
COLO 205 = tested on: COLO 205
DU-145 = tested on: DU-145
EKVX = tested on: EKVX
HCC 2998 = tested on: HCC 2998
HCT-116 = tested on: HCT-116
HOP-92 = tested on: HOP-92
LOX IMVI = tested on: LOX IMVI
MDA-MB-231 = tested on: MDA-MB-231
MDA-N = tested on: MDA-N
MOLT-4 = tested on: MOLT-4
Malme-3M = tested on: Malme-3M
NCI-H226 = tested on: NCI-H226
NCI-H460 = tested on: NCI-H460
OVCAR-4 = tested on: OVCAR-4
RXF 393 = tested on: RXF 393
SK-MEL-5 = tested on: SK-MEL-5
UACC-257 = tested on: UACC-257
UO-31 = tested on: UO-31
SF-268 = tested on: SF-268

Compound | GI50 (COLO 205) | GI50 (DU-145) | GI50 (EKVX) | GI50 (HCC 2998) | GI50 (HCT-116) | GI50 (HOP-92) | GI50 (LOX IMVI) | GI50 (MDA-MB-231) | GI50 (MDA-N) | GI50 (MOLT-4) | GI50 (Malme-3M) | GI50 (NCI-H226) | GI50 (NCI-H460) | GI50 (OVCAR-4) | GI50 (RXF 393) | GI50 (SK-MEL-5) | GI50 (UACC-257) | GI50 (UO-31) | GI50 (SF-268)
CC(C)(C)OC(=O)[C@H]1CCC(=S)N1Cc1ccccc1 | > 100 µM (inactive) | > 100 µM (inactive) | > 100 µM (inactive) | > 100 µM (inactive) | > 100 µM (inactive) | > 100 µM (inactive) | > 100 µM (inactive) | > 100 µM (inactive) | > 100 µM (inactive) | > 100 µM (inactive) | > 100 µM (inactive) | > 100 µM (inactive) | > 100 µM (inactive) | > 100 µM (inactive) | > 100 µM (inactive) | > 100 µM (inactive) | > 100 µM (inactive) | > 100 µM (inactive) | 
CCC(C)c1c(Cl)nc(Cl)nc1Cl (stereo not drawn) |  | 16.3 µM (inactive) | 15.5 µM (inactive) | 11.4 µM (inactive) | 6.07 µM (inactive) |  | 0.44 µM (active) |  | 6.44 µM (inactive) | 0.271 µM (active) | 5.75 µM (inactive) | 2.86 µM (inactive) | 7.46 µM (inactive) | 16.9 µM (inactive) | 8.02 µM (inactive) | 2.81 µM (inactive) | > 10 µM (inactive) | 17.9 µM (inactive) | 8.04 µM (inactive)
C#CC1(O)CCC2C3CCc4cc(Oc5nc(F)nc(-c6c7ccccc7c7sc8ccccc8n67)n5)ccc4C3CC[C@@]21C (stereo partly drawn) | > 100 µM (inactive) |  |  | > 100 µM (inactive) | > 100 µM (inactive) | > 100 µM (inactive) |  |  |  | 42 µM (inactive) | > 100 µM (inactive) | > 100 µM (inactive) | > 100 µM (inactive) | > 100 µM (inactive) |  | > 100 µM (inactive) | > 100 µM (inactive) | > 100 µM (inactive) | > 100 µM (inactive)
C/N=N/N(C)C(=O)NC | > 100 µM (inactive) |  |  | > 100 µM (inactive) | > 100 µM (inactive) | > 100 µM (inactive) | > 100 µM (inactive) |  |  | > 100 µM (inactive) | > 100 µM (inactive) |  | > 100 µM (inactive) | > 100 µM (inactive) | > 100 µM (inactive) | > 100 µM (inactive) |  | > 100 µM (inactive) | > 100 µM (inactive)
CN(C)C(=S)/N=c1\ssc(=S)n1Cc1ccccn1 | 2.75 µM (inactive) |  | 3.89 µM (inactive) | 4.92 µM (inactive) | 2.87 µM (inactive) | 4.12 µM (inactive) | 5.06 µM (inactive) |  |  | 3.11 µM (inactive) | 2.49 µM (inactive) | 6.5 µM (inactive) | 2.93 µM (inactive) | 14 µM (inactive) | 3.01 µM (inactive) | 3.52 µM (inactive) | 4.1 µM (inactive) | 3.7 µM (inactive) | 6 µM (inactive)
O=C1CN(C(=O)c2ccccc2)Cc2[nH]c3ccccc3c21 | > 100 µM (inactive) |  | > 100 µM (inactive) | > 100 µM (inactive) | > 100 µM (inactive) | > 100 µM (inactive) | > 100 µM (inactive) |  |  | > 100 µM (inactive) | > 100 µM (inactive) | > 100 µM (inactive) | > 100 µM (inactive) | > 100 µM (inactive) | > 100 µM (inactive) | > 100 µM (inactive) | > 100 µM (inactive) | > 100 µM (inactive) | 
COC1=CC(=O)C2[C@H]3Cc4ccccc4[C@H]3C2(C)C1=O (stereo partly drawn) | > 100 µM (inactive) |  | > 100 µM (inactive) | > 100 µM (inactive) |  | > 100 µM (inactive) | > 100 µM (inactive) |  |  | 91.6 µM (inactive) | > 100 µM (inactive) | 81.8 µM (inactive) | > 100 µM (inactive) | > 100 µM (inactive) | > 100 µM (inactive) | > 100 µM (inactive) | > 100 µM (inactive) | 34.7 µM (inactive) | > 100 µM (inactive)
COC(=O)[C@@H]1C[C@H](c2ccc(OC)c(OC)c2)OC1=O.COC(=O)[C@H]1C[C@H](c2ccc(OC)c(OC)c2)OC1=O | > 100 µM (inactive) |  | > 100 µM (inactive) | 61.9 µM (inactive) | > 100 µM (inactive) | > 100 µM (inactive) | > 100 µM (inactive) |  |  | > 100 µM (inactive) | > 100 µM (inactive) | > 100 µM (inactive) | > 100 µM (inactive) | > 100 µM (inactive) | > 100 µM (inactive) | > 100 µM (inactive) | > 100 µM (inactive) | > 100 µM (inactive) | > 100 µM (inactive)
COc1cc(C(=O)N[C@H]2CCc3cc(OC)c(OC)c(OC)c3-c3ccc(SC)c(=O)cc32)cc(OC)c1OC | 0.0342 µM (active) |  | 0.0106 µM (active) | 0.0113 µM (active) | 0.00857 µM (active) | 0.06 µM (active) | 0.00603 µM (active) |  |  | 0.00916 µM (active) | 0.02 µM (active) | < 0.01 µM (active) | 0.00615 µM (active) | 1.42 µM (inactive) | 0.00752 µM (active) | 0.0132 µM (active) | 0.0586 µM (active) | 0.019 µM (active) | 0.0218 µM (active)
